Test results published in article PMC3530532, “Corticosteroid-Binding Globulin: Structure-Function Implications from Species Differences” (PLoS ONE, 2012).
Residue numbers refer to the chain shown, from its start. Read-outs that look alike come from different tables or passages of the source.

Columns and labels:
Cleaved rat CBG-RCL1 = target: T1, Cleaved rat CBG-RCL1 (Rattus norvegicus, UniProt P31211, A357V/P358T); experiment: Isothermal titration calorimetry, steroid titrated to neutrophil elastase-cleaved rat CBG-RCL1; format: binding
T1 construct: residues 5 to 374 of rat CBG (P31211); GST (N, cleaved yes); made in house; host or cells: E. coli BL21 Star (DE3)
T1 sequence (P31211 27-396 A357V/P358T limits assumed): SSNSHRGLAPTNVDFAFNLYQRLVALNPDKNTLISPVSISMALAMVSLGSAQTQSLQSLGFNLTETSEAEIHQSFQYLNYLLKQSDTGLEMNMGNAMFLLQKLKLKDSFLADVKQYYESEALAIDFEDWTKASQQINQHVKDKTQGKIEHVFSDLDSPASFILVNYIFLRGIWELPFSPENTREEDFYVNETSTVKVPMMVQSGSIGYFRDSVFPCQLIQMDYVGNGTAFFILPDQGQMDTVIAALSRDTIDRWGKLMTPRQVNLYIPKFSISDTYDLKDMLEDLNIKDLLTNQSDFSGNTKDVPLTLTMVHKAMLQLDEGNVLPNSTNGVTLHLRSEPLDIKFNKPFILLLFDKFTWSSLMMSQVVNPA
Protocol: Cleavage of the RCL in human and rat CBG mutants was accomplished with 100 mU human neutrophil elastase (Sigma-Aldrich) per mg purified CBG at 30°C and monitored by SDS-PAGE. The cleavage reaction was stopped with AEBSF.
(§1) The protein samples were dialyzed against ITC buffer (20 mM potassium phosphate, 50 mM NaCl, pH 7.4) and titrated with steroids in a VP-ITC microcalorimeter (Microcal, Piscataway). All solutions were filtered (0.2 µm filter pore size) and degassed for 30 min prior to the titration experiments. The sample cell was filled with protein solution containing 15 µM rat CBG or 20 µM human CBG and titrated with steroid solutions containing 150 µM and 200 µM ligand, respectively. The titrations consisted of an initial injection of 2 µL followed by 25 consecutive injections of 10 µL ligand solution at 25°C. A spacing of 240 sec between the injections was used to allow a return to the baseline. Data points from the initial injection, which are generally affected by diffusion during the initial equilibration period after experiment setup, were discarded prior to data analysis. […] The binding curve was generated by plotting the heats of injections against the ratio of ligand to protein in the cell. Integrated heat data were analyzed using nonlinear regression fit with a one-site-binding model in the Origin-7™ software provided with the VP-ITC. Changes in the free energy and entropy can be calculated using the equation: ΔG° = −RTlnK = ΔH°−TΔS°. In this equation ΔG° is the change in Gibbs free energy, R the universal gas constant, T the temperature, and K the association constant. The change in enthalpy is denoted as ΔH°, and ΔS° is the change in entropy under standard conditions. The data shown in Table 2 were obtained from single titrations of each complex.

Human CBG-WT = target: T2, Human CBG-WT (Homo sapiens, UniProt P08185, K148A); experiment: Isothermal titration calorimetry, steroid titrated to uncleaved human CBG-WT; format: binding; conditions: ITC, 25°C
T2 construct: residues 11 to 383 of human CBG (Swiss-Prot entry P08185); GST (N, cleaved yes); made in house; host or cells: E. coli BL21 Star (DE3)
T2 sequence (P08185 33-405 K148A): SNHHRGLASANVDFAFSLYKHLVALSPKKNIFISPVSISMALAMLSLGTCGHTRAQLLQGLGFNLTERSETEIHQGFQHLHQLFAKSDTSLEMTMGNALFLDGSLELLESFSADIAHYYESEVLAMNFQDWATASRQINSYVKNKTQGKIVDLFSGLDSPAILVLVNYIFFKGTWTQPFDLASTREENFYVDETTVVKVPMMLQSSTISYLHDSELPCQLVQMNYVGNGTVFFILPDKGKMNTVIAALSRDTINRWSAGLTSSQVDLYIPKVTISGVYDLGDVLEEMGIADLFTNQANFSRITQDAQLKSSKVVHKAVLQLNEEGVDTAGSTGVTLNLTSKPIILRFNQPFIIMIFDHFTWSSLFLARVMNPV
Protocol: (§2) The coding sequences of residues 11 to 383 of human CBG (Swiss-Prot entry P08185) and residues 5 to 374 of rat CBG (P31211) were cloned into a pGEX-2T vector (GE Healthcare, Uppsala), yielding N-terminal glutathione-S-transferase (GST) fusion proteins. Mutations were introduced using a two-stage PCR procedure based on the QuikChange (Stratagene, Santa Clara) site-directed mutagenesis protocol. All experiments with human CBG were conducted with a mutant in which surface residue Lys126 was replaced by alanine in order to facilitate crystallization. Wild-type rat CBG (rat CBG-WT) and rat CBG mutants CBG-RCL1, CBG-RCL2 and CBG-RCL3 were produced to probe the function of the RCL residues in rat CBG. All gene constructs were confirmed by DNA sequencing prior to protein production.
(§3) The GST-tagged human and rat CBG variants were produced in E. coli BL21 Star™ (DE3) cells (Invitrogen, Carlsbad) using the ZYM-5052 auto-inducing medium. For each variant, 10 L of ZYM-5052 medium containing 100 µg/mL ampicillin were inoculated with an overnight culture of a single clone. The flasks were incubated at 37°C until the optical density at 600 nm reached 0.3. The temperature was then lowered to 20°C, and the cells were allowed to grow for an additional 20 h. The pellet was resuspended in PBS buffer (pH 7.4) containing 5 mM EDTA after cell harvesting (4 mL of buffer per gram of pellet).
as §1, with “The change in enthalpy is denoted as ΔH°, and ΔS° is the change in entropy under standard conditions. The data shown in Table 2 were obtained from single titrations of each complex.” left out

Rat CBG-WT = target: T3, Rat CBG-WT (Rattus norvegicus, UniProt P31211); experiment: Isothermal titration calorimetry, steroid titrated to rat CBG-WT; format: binding; conditions: ITC, 25°C
T3 construct: residues 5 to 374 of rat CBG (P31211); GST (N, cleaved yes); made in house; host or cells: E. coli BL21 Star (DE3)
T3 sequence (P31211 27-396): T1 sequence (P31211 27-396 A357V/P358T limits assumed) with V331A, T332P
Protocol: as §2, §3, §1

uncleaved human CBG = target: uncleaved human CBG; set-up: method as in PMID 21325280; conditions: cited from earlier work
CBG = conditions: cited from earlier work
[1] = ITC, 25°C, cleaved rat CBG-RCL1

## C[C@]12CCC(=O)C=C1CC[C@@H]1[C@@H]2[C@@H](O)C[C@@]2(C)[C@H]1CC[C@]2(O)C(=O)CO [Hydrocortisone]
Cleaved rat CBG-RCL1; [1]
  TΔS°: -30.43 kcal/mol
  ΔG°: -9.2 kcal/mol
  ΔH°: -39.63 kcal/mol
Cleaved rat CBG-RCL1; ITC, 25°C, single titration, cleaved rat CBG-RCL1
  Kd: 209 ± 20 nM
Cleaved rat CBG-RCL1; rat CBG, uncleaved vs cleaved rat CBG-RCL1, ITC 25°C
  decrease in binding affinity upon RCL cleavage: about 2 fold
Human CBG-WT; single titration, uncleaved human CBG-WT (K126A, E. coli produced)
  Kd: 45 ± 7 nM
Human CBG-WT; uncleaved human CBG-WT
  TΔS°: -26.08 kcal/mol
  ΔG°: -10.1 kcal/mol
  ΔH°: -36.14 kcal/mol
Rat CBG-WT; rat CBG-WT
  TΔS°: -20.3 kcal/mol
  ΔG°: -9.44 kcal/mol
  ΔH°: -29.78 kcal/mol
Rat CBG-WT; single titration, uncleaved rat CBG-WT
  Kd: 122 ± 6 nM
Uncleaved human CBG; 22°C, uncleaved human CBG, fluorescence titration, read-out: binding affinity
  Kd: 26.9 nM
Uncleaved human CBG; 37°C, uncleaved human CBG-WT, read-out: K d 37°C
  Kd: 292 ± 19 nM
CBG
  fraction circulating free in plasma: 4–5%
  fraction of cortisol in plasma bound by CBG: 80–90%
